Tests used:
[1] = tested on: heparin sulfate 2-O sulfotransferase HS2ST; parameters: method as in PMID 29934491; conditions: cited from earlier work
human TPST2 [2] = molecular target: T1, human TPST2 (Homo sapiens, UniProt O60704); assay: Differential scanning fluorimetry (thermal shift) assay with TPST2; assay type: binding; conditions: DSF, TPST2 5 µM, 10 µM rottlerin
T1 construct: TPST2 (residues Gly43–Leu359) enzymes lacking the transmembrane domains; made in house; host or cells: E. coli BL21 (DE3) pLysS
T1 sequence (O60704 43-359): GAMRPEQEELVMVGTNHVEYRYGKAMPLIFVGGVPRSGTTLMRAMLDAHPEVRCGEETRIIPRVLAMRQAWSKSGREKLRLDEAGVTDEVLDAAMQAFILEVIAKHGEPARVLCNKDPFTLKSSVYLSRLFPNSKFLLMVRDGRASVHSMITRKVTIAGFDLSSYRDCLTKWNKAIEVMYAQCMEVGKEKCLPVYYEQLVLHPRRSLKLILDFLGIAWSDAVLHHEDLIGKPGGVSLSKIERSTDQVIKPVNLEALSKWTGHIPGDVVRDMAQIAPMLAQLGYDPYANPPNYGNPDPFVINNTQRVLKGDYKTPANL

human TPST1 [3] = molecular target: T2, human TPST1 (Homo sapiens, UniProt O60507); assay: Differential scanning fluorimetry (thermal shift) assay with TPST1; assay type: binding; conditions: DSF, TPST1 5 µM, 10 µM rottlerin
T2 construct: human TPST1 (residues Lys43–Leu360) and TPST2 (residues Gly43–Leu359) enzymes lacking the transmembrane domains; made in house; host or cells: E. coli BL21 (DE3) pLysS
T2 sequence (O60507 43-360): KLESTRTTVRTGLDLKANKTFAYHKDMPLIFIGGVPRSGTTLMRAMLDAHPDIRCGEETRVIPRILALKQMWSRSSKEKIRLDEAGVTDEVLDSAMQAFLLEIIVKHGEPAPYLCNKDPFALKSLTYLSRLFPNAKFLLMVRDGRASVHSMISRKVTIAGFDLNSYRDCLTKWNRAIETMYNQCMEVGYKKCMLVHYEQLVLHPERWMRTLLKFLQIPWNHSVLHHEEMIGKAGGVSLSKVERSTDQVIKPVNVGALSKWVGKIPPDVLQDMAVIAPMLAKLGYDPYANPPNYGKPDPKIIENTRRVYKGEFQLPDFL

human TPST2 [4] = molecular target: T1, human TPST2; assay: EZ Reader II microfluidic mobility-shift CC4-tide sulfation assay, TPST2; assay type: biochemical
human TPST1 [5] = molecular target: T2, human TPST1; assay: GST-CC4-tide tyrosine sulfation by TPST1, immunoblotting with monoclonal sulfotyrosine antibody; assay type: biochemical; conditions: GST-CC4-tide 1 µg, 10 µM PAPS, increasing concentrations of inhibitor
Experimental: After the assay, proteins were denatured in Laemmli sample buffer, heated at 95°C for 5 min and then analysed by SDS–PAGE with 10% (v/v) polyacrylamide gels. Gels were stained and destained using a standard Coomassie Brilliant Blue protocol. To evaluate protein sulfation and phosphorylation by immunoblotting, standard western blotting procedures were followed using monoclonal anti-sulfotyrosine antibody clone Sulfo-1C-A2 (Millipore) generated using a phage display procedure and sulfotyrosine selection peptide antigens in the presence of appropriate positive and negative controls, and modifications visualised using the ECL reagent.

human TPST1 [6] = molecular target: T2, human TPST1; assay: EZ Reader II microfluidic mobility-shift CC4-tide sulfation assay, TPST1; assay type: biochemical; conditions: 10 µM PAPS

CC(=O)c1c(O)c(C)c(O)c(Cc2c(O)c3c(c(C(=O)/C=C/c4ccccc4)c2O)OC(C)(C)C=C3)c1O [Rottlerin]
HS2ST inhibition in vitro (in words) [1]: inhibitory activity
Thermal shift of TPST2 (in words) (human TPST2 [2]): positive
Thermal shift of TPST1 (in words) (human TPST1 [3]): positive
IC50 (human TPST2 [4]): 1140 nM
Inhibition of GST-CC4-tide tyrosine sulfation by TPST1 (immunoblot, in words) (human TPST1 [5]): dose-dependent inhibition
IC50 (human TPST1 [6]; TPST1 IC50 (rottlerin dose-response), Fig 6A, CC4-tide, normalised to 1% DMSO): 500 nM
IC50 (human TPST1 [6]; TPST1 IC50, previously described compounds, Fig 6C, CC4-tide, normalised to 1% DMSO): ~1000 nM
IC50 (human TPST1 [6]; TPST1 estimated IC50, RAF kinase inhibitors, Fig 8B, TPST1 0.1 µM pre-incubated with compound): 600 nM
